Assay results as given in paper PMC6222614, “Disubstituted 4-Chloro-3-nitrophenylthiourea Derivatives: Antimicrobial and Cytotoxic Studies” (Molecules : A Journal of Synthetic Chemistry and Natural …, 2018).
pEC50: −log10 of the molar value. ≈ marks a conversion by molar mass, not a printed value.

Assays:
[1] = tested on: staphylococci; assay: MIC against staphylococci; format: cell-based; details: moderate activity
Experimental: (§1) The antimicrobial activity of the compounds was tested on Gram-positive bacteria (Staphylococcus aureus NCTC 4163, Staphylococcus aureus ATCC 25923, Staphylococcus aureus ATCC 6538, Staphylococcus aureus ATCC 29213, Staphylococcus epidermidis ATCC 12228, Staphylococcus epidermidis ATCC 35984, Enterococcus faecalis ATCC 29212, Bacillus subtilis ATCC 6633, Bacillus cereus ATCC 11778, Micrococcus luteus ATCC 9341, Micrococcus luteus ATCC 10240); Gram-negative rods (Escherichia coli ATCC 10538, Escherichia coli ATCC 25922, Escherichia coli NCTC 8196, Proteus vulgaris NCTC 4635, Pseudomonas aeruginosa ATCC 15442, Pseudomonas aeruginosa NCTC 6749, Pseudomonas aeruginosa ATCC 27863, Bordetella bronchiseptica ATCC 4617) and yeasts (Candida albicans ATCC 10231, Candida albicans ATCC 90028, Candida parapsilosis ATCC 22019). Other microorganisms used were obtained from the collection of the Department of Pharmaceutical Microbiology, Medical University of Warsaw, Poland.
(§2) Antibacterial activity was examined by the disc-diffusion method under standard conditions using Mueller-Hinton II agar medium (Becton Dickinson) according to CLSI (previously NCCLS) guidelines. Antifungal activities were assessed using Mueller-Hinton agar + 2% glucose and 0.5 µg/mL Methylene Blue Dye Medium. Sterile filter paper discs (9 mm diameter, Whatman No 3 chromatography paper) were dripped with tested compound solutions (in DMSO) to load 400 μg of a given compound per disc. Dry discs were placed on the surface of appropriate agar medium. The results (diameter of the growth inhibition zone) were read after 18 h of incubation at 35 °C. Minimal Inhibitory Concentration (MIC) was tested by the twofold serial microdilution method (in 96-well microtiter plates) using Mueller-Hinton Broth medium (Beckton Dickinson) for bacteria or RPMI-1640 medium for Candida species according to CLSI guidelines. The stock solution of tested agent was prepared in DMSO and diluted in sterile water. Concentrations of tested agents ranged from 0.125 to 512 µg/mL. The final inoculum of all studied microorganisms was 10^5 CFU/ mL^−1 (colony forming units per mL). Minimal inhibitory concentrations (the lowest concentration of a tested agent that prevents visible growth of a microorganism) were read after 18 h (bacteria) or 24 h (yeasts) of incubation at 35 °C.

[2] = tested on: S. epidermidis MRSE 405/11; assay: MIC, hospital methicillin-resistant strain; format: cell-based; details: Staphylococcus epidermidis
Experimental: as §1, §2

[3] = tested on: S. epidermidis MRSE 413/11; assay: MIC, hospital methicillin-resistant strain; format: cell-based; details: Staphylococcus epidermidis
Experimental: as §1, §2

[4] = tested on: S. epidermidis MRSE 409/11; assay: MIC, hospital methicillin-resistant strain; format: cell-based; details: Staphylococcus epidermidis
Experimental: as §1, §2

[5] = tested on: S. epidermidis MRSE 422/11; assay: MIC, hospital methicillin-resistant strain; format: cell-based; details: Staphylococcus epidermidis
Experimental: as §1, §2

[6] = tested on: S. epidermidis MRSE 411/11; assay: MIC, hospital methicillin-resistant strain; format: cell-based; details: Staphylococcus epidermidis
Experimental: as §1, §2

[7] = tested on: S. epidermidis MRSE 412/11; assay: MIC, hospital methicillin-resistant strain; format: cell-based; details: Staphylococcus epidermidis
Experimental: as §1, §2

[8] = tested on: S. epidermidis MRSE 404/11; assay: MIC, hospital methicillin-resistant strain; format: cell-based; details: Staphylococcus epidermidis
Experimental: as §1, §2

[9] = tested on: S. epidermidis MRSE 407/11; assay: MIC, hospital methicillin-resistant strain; format: cell-based; details: Staphylococcus epidermidis
Experimental: as §1, §2

[10] = tested on: S. epidermidis MRSE 406/11; assay: MIC, hospital methicillin-resistant strain; format: cell-based; details: Staphylococcus epidermidis
Experimental: as §1, §2

[11] = tested on: S. epidermidis MRSE 403/11; assay: MIC, hospital methicillin-resistant strain; format: cell-based; details: Staphylococcus epidermidis
Experimental: as §1, §2

[12] = tested on: S. epidermidis ATCC 35984; assay: MIC, twofold serial microdilution; format: cell-based; details: Staphylococcus epidermidis, ATCC35984; standard strain, 18 h, 35 °C
Experimental: as §1, §2

[13] = tested on: M. luteus ATCC 10240; assay: MIC, twofold serial microdilution; format: cell-based; details: Micrococcus luteus, ATCC10240; standard strain, 18 h, 35 °C
Experimental: as §1, §2

[14] = tested on: E. faecalis ATCC 29212; assay: MIC, twofold serial microdilution; format: cell-based; details: Enterococcus faecalis, ATCC29212; standard strain, 18 h, 35 °C
Experimental: as §1, §2

[15] = tested on: S. aureus ATCC 25923; assay: MIC, twofold serial microdilution; format: cell-based; details: Staphylococcus aureus, ATCC25923; standard strain, 18 h, 35 °C
Experimental: as §1, §2

[16] = tested on: B. subtilis ATCC 6633; assay: MIC, twofold serial microdilution; format: cell-based; details: Bacillus subtilis, ATCC6633; standard strain, 18 h, 35 °C
Experimental: as §1, §2

[17] = tested on: S. aureus ATCC 6538; assay: MIC, twofold serial microdilution; format: cell-based; details: Staphylococcus aureus, ATCC6538; standard strain, 18 h, 35 °C
Experimental: as §1, §2

[18] = tested on: B. cereus ATCC 11778; assay: MIC, twofold serial microdilution; format: cell-based; details: Bacillus cereus, ATCC11778; standard strain, 18 h, 35 °C
Experimental: as §1, §2

[19] = tested on: M. luteus ATCC 9341; assay: MIC, twofold serial microdilution; format: cell-based; details: Micrococcus luteus, ATCC9341; standard strain, 18 h, 35 °C
Experimental: as §1, §2

[20] = tested on: S. aureus NCTC 4163; assay: MIC, twofold serial microdilution; format: cell-based; details: Staphylococcus aureus, NCTC4163; standard strain, 18 h, 35 °C
Experimental: as §1, §2

[21] = tested on: S. epidermidis ATCC 12228; assay: MIC, twofold serial microdilution; format: cell-based; details: Staphylococcus epidermidis, ATCC12228; standard strain, 18 h, 35 °C
Experimental: as §1, §2

[22] = tested on: S. aureus ATCC 29213; assay: MIC, twofold serial microdilution; format: cell-based; details: Staphylococcus aureus, ATCC29213; standard strain, 18 h, 35 °C
Experimental: as §1, §2

[23] = Cytotoxicity against mock-infected MT-4 cells (MTT); format: cell-based, human; details: human, concentration reducing viability of mock-infected MT-4 cells by 50%
Experimental: (§3) Cell line supporting the multiplication of Human Immunodeficiency Virus type-1 (HIV-1) was the CD4+ human T-cells, derived from human hematological tumors, containing an integrated HTLV-1 genome (MT-4). Cells were purchased from American Type Culture Collection (ATCC). Human Immunodeficiency Virus type-1 (HIV-1) IIIB laboratory strain was obtained from the supernatant of the persistently infected H9/IIIB cells (NIH 1983).
Exponentially growing MT-4 cells were seeded at an initial density of 1 × 10^5 cells/mL in 96-well plates in RPMI-1640 medium, supplemented with 10% fetal bovine serum (FBS), 100 units/mL penicillin G and 100 μg/mL streptomycin. Cell cultures were then incubated at 37 °C in a humidified, 5% CO2 atmosphere, in the absence or presence of serial dilutions of tested compounds. Cell viability was determined after 96 h at 37 °C by the 3-(4,5-dimethylthiazol-2-yl)-2,5-diphenyl-tetrazolium bromide (MTT) method.

[24] = tested on: HIV-1 IIIB; assay: Anti-HIV-1 activity: protection of MT-4 cells from virus-induced cytopathogenicity (MTT); format: cell-based, Human Immunodeficiency Virus type-1; details: Human immunodeficiency virus 1, IIIB, MT4, 96 h; 50% protection of MT-4 cells from HIV-1 induced cytopathogenicity, MTT, 4-day incubation; read-out: HIV-1IIIB EC50
From the text: as §3
The activity of compounds against HIV-1 was based on inhibition of virus-induced cytopathogenicity in MT-4 cell acutely infected with a multiplicity of infection (m.o.i.) of 0.01. Briefly, 50 μL of RPMI containing 1 × 10^4 MT-4 cells were added to each well of flat-bottom microtiter trays, containing 50 μL of RPMI without or with serial dilutions of test compounds. Then, 20 μL of a HIV-1 suspension containing 100 CCID50 were added. After a 4-day incubation at 37 °C, cell viability was determined by the MTT method.

Row | MIC [2] [µg/mL] | MIC [3] [µg/mL] | MIC [4] [µg/mL] | MIC [5] [µg/mL] | MIC [6] [µg/mL] | MIC [7] [µg/mL] | MIC [8] [µg/mL] | MIC [9] [µg/mL] | MIC [10] [µg/mL] | MIC [11] [µg/mL] | MIC [12] [µg/mL] | MIC [13] [µg/mL] | MIC [14] [µg/mL] | MIC [15] [µg/mL] | MIC [16] [µg/mL] | MIC [17] [µg/mL] | MIC [18] [µg/mL] | MIC [19] [µg/mL] | pEC50 [24] | SMILES | CC50 at 96 h [23] [µM] | other results
1 | 32 (≈ 112 µM) | 32 (≈ 112 µM) | 32 (≈ 112 µM) | 64 (≈ 224 µM) | 32 (≈ 112 µM) | 64 (≈ 224 µM) | 32 (≈ 112 µM) | 32 (≈ 112 µM) | 32 (≈ 112 µM) | 32 (≈ 112 µM) | 16 (≈ 56 µM) | 32 (≈ 112 µM) | 64 (≈ 224 µM) | 16 (≈ 56 µM) | 16 (≈ 56 µM) | 16 (≈ 56 µM) | 8 (≈ 28 µM) | 16 (≈ 56 µM) | < 4.81 | C=C(C)CNC(=S)Nc1ccc(Cl)c([N+](=O)[O-])c1 [Compound 27, 1-(4-chloro-3-nitrophenyl)-3-(2-methylprop-2-en-1-yl)thiourea] | 15.5 | MIC range towards staphylococci [1]: 8 to 16 µg/mL; MIC [20]: 16 µg/mL (≈ 56 µM); MIC [21]: 16 µg/mL (≈ 56 µM); MIC [22]: 16 µg/mL (≈ 56 µM); melting point: 96 to 98 °C
2 | 64 (≈ 236 µM) | 64 (≈ 236 µM) | 64 (≈ 236 µM) | 128 (≈ 471 µM) | 64 (≈ 236 µM) | 128 (≈ 471 µM) | 64 (≈ 236 µM) | 64 (≈ 236 µM) | 64 (≈ 236 µM) | 64 (≈ 236 µM) | 32 (≈ 118 µM) | 32 (≈ 118 µM) | 64 (≈ 236 µM) | 32 (≈ 118 µM) | 32 (≈ 118 µM) | 32 (≈ 118 µM) | 32 (≈ 118 µM) | 32 (≈ 118 µM) | ≤ 4.37 | C=CCNC(=S)Nc1ccc(Cl)c([N+](=O)[O-])c1 [Compound 28, 1-(4-chloro-3-nitrophenyl)-3-prop-2-en-1-ylthiourea] | 43 | MIC [20]: 64 µg/mL (≈ 236 µM); MIC [21]: 32 µg/mL (≈ 118 µM); MIC [22]: 64 µg/mL (≈ 236 µM); melting point: 112 to 114 °C
3 | 32 (≈ 100 µM) | 32 (≈ 100 µM) | 32 (≈ 100 µM) | 32 (≈ 100 µM) | 32 (≈ 100 µM) | 32 (≈ 100 µM) | 32 (≈ 100 µM) | 32 (≈ 100 µM) | 32 (≈ 100 µM) | 32 (≈ 100 µM) | 16 (≈ 50 µM) | 32 (≈ 100 µM) | 64 (≈ 200 µM) | 16 (≈ 50 µM) | 16 (≈ 50 µM) | 16 (≈ 50 µM) | 8 (≈ 25 µM) | 16 (≈ 50 µM) | < 4.47 | CSCCCNC(=S)Nc1ccc(Cl)c([N+](=O)[O-])c1 [Compound 29, 1-(4-chloro-3-nitrophenyl)-3-[3-(methylsulfanyl)propyl]thiourea] | 33.7 | MIC range towards staphylococci [1]: 8 to 16 µg/mL; MIC [20]: 16 µg/mL (≈ 50 µM); MIC [21]: 16 µg/mL (≈ 50 µM); MIC [22]: 16 µg/mL (≈ 50 µM); melting point: 102 to 103.5 °C
4 | – | – | – | – | – | – | – | – | – | – | – | – | – | – | – | – | – | – | 8.70 | O=C1Nc2ccc(Cl)cc2[C@@](C#CC2CC2)(C(F)(F)F)O1 [Efavirenz, reference compound] | 46 | –
